Test results as given in patent US10106601B2, “Inhibition of PLGF to treat philadelphia chromosome positive leukemia” (VIB VZW, priority 2008, dated 2018).
“Also recorded” adds a separate entry of the source.

B1: PIGF: murine recombinant placental growth factor from R&D Systems, used at 50 ng/ml (protein, UniProt P49764 19-158, looked up)
Placenta growth factor: VHSQGALSAGNNSTEVEVVPFNEVWGRSYCRPMEKLVYILDEYPDEVSHIFSPSCVLLSRCSGCCGDEGLHCVPIKTANITMQILKIPPNRDPHFYVEMTFSQDVLCECRPILETTKAERRKTKGKRKRSRNSQTEEPHP

Tests used:
[1] = test system: PIGF; test: PIGF levels in PB of CML patients treated with Imatinib; type: in vivo, human
[2] = test system: murine BMDSCs; test: PIGF secretion by stromal cells incubated with imatinib; type: cell-based; details: increasing concentrations of imatinib
Experimental: For isolation of BMDSCs, the bone marrow from femurs and tibias was flushed, the erythrocytes eliminated with lysis buffer (150 mM NH4Cl, 0.1 mM EDTA, 10 mM KHCO3, pH 7.4) and subsequently the cells were cultured in DMEM medium supplemented with 15% FCS. After 24 hours, the non-adherent cell fraction was removed, and the adherent cells were further cultured and expanded for 3 weeks.
Concentrations of PIGF or VEGF were quantified in cell culture supernatants, peripheral blood plasma and bone marrow plasma using “Quantikine” mouse PIGF and mouse VEGF immunoassays (R&D Systems). Concentrations were expressed as pg/ml/10^5 cells or as pg/ml.

[3] = test system: Bv-173 and KCL-22 cells; test: Western Blots of ABL phosphorylation with and without PIGF; type: cell-based, human; details: cells incubated with and without PIGF; data not shown
Experimental: In order to elucidate, whether PIGF induces changes in ABL phosphorylation of BCR/ABL^+ leukemia cells, we performed Western Blots of Bv-173 and KCL-22 cells that were incubated with and without PIGF.

[4] = test system: BCR/ABL+ cell lines; test: Induction of proliferation of leukemia cells by recombinant PIGF; type: cell-based, human and murine; details: in vitro
Experimental: Proliferation of leukemia cells and BMDSCs was analyzed by using MTT assays or by manual counting with a hemocytometer. Murine recombinant PIGF and anti-VEGFR-1 were obtained from R&D Systems. Anti-PIGF and control IgG1 were produced by Thrombogenics and Biolnvent and characterized as described (Fischer et al., 2007). PIGF was used at a concentration of 50 ng/ml and the antibodies in 100-fold molar excess, unless stated otherwise. For co-culture experiments, 10^5 BMDSCs were co-cultured for 48 hours with 4×10^5 leukemia cells alone or in presence of the respective antibodies in serum-free medium. Subsequently, numbers of adherent BMDSCs and non-adherent leukemia cells were determined and supernatants were harvested for analyses of PIGF and VEGF protein.

Molecule | PIGF levels in PB ([1]; patients with BCR/ABL/ABL ratio <1) | PIGF levels in PB ([1]; patients with complete molecular remission (CMR) vs healthy subjects) | PIGF secretion by BMDSCs [2] | phosphorylation of ABL [3] | induction of proliferation of leukemia cells by PIGF [4]
Cc1ccc(NC(=O)c2ccc(CN3CCN(C)CC3)cc2)cc1Nc1nccc(-c2cccnc2)n1 [imatinib] | elevated to similar levels as in untreated, newly diagnosed CML patients | significantly higher | dose-dependent induction of PIGF |  | 
B1 |  |  |  | did not modify phosphorylation of ABL | dose dependently induced proliferation; also recorded: dose-dependent induction of proliferation
